From patent US20190077774A1, “PEROXISOME PROLIFERATOR-ACTIVATED RECEPTOR AGONISTS” (City of Hope, priority 2017, published 2019)

Tested on: PPARα target genes in the liver
Test: Liver gene expression of PPARα targets in treated mice (RT-qPCR)
Type: in vivo
Description: FIG. 6. […] Data in same order as triglyceride suppression (FIG. 5). apo CIII and LPL expression inversely correlate with triglyceride suppression for many, but not all, compounds. ACOX1 and Cyp4A3 expression correlate with triglyceride suppression for many, but not all, compounds.
The following oligonucleotide primers were used to amplify insertion sequences: for PPARα, FW-5′-[…]-3′ (SEQ ID NO:1) and Rev-5′-[…]-3′ (SEQ ID NO:2); for RXRα, FW-5′ […]-3′ (SEQ ID NO:3) and Rev-5′-[…]-3′ (SEQ ID NO:4). It has been well established that PPARα agonists fibrates reduce plasma triglycerides largely by inducing hepatic PPARα-mediated transcription of key proteins in hepatic long-chain fatty acid […], such as CPT1 (carnitine palmitoyltransferase-1). DY121 promoted the expression of PPARα, CPT1, and LPL involved in free fatty acid β-oxidation. The mRNA expressions of the PPARα-regulated genes CPT-Ia and ACADM were measured by real-time quantitative-PCR (RT-qPCR). […] A structural specificity of DY121 may be responsible for this regulation. PPARα is predominantly expressed in liver. PPARα modulates fatty acid catabolism in the liver. We next measured the mRNA expression of PPARα target genes in the liver. PPARα agonists exert their actions and attributed to the activation of PPARα which in turn effects an increase in LPL (lipoprotein lipase) gene expression and transrepression of apoC-III (apolipoprotein C-III). Activation of PPARα by its modulators can increase PPARα levels and activate PPARα pathways, leading to increased fatty-acid oxidation and reduction of oxidative stress. DY121 and its analogs induced the expression of PPARα-regulated genes involved in lipid, glucose, and cholesterol metabolism, such as ACOX1 (acyl-CoA oxidase) and Cyp4A3 (cytochrome P450 gene subfamily). Members of the CYP4A gene subfamily catalyze the oxygenation of biologically important fatty acids.
Next, we would like to investigate the therapeutic potential of DY121 to see if it could be candidate for treating NAFLD/NASH. Note that the pathogenesis of NASH has not yet been fully elucidated so far; however, the ‘two-hit’ theory is widely accepted. The first hit is the accumulation of fatty acids in the liver to cause steatosis. […] The newly produced PPARα agonist DY121 and its analogs, as well as WY100=WY14643 and GW3 (GW7647), were evaluated in C57Bl/6J female mice for their ability to alter serum triglyceride, liver gene expression, and glucose. Fibric acid derivatives (100 mg/kg/day) was used as a control, WY100 (WY14, 643, 100 mg/kg/day), GW3 (GW7647-positive control, 3 mg/kg/day), DY121 (˜3 mg/kg/day), respectively. […]

COc1ccc(Cn2c(CCCc3ccc(OC(C)(C)C(=O)O)cc3)nn(Cc3ccc(C)cc3)c2=O)cc1 [10a, 2-(4-{3-[4-(4-Methoxy-benzyl)-1-(4-methyl-benzyl)-5-oxo-4,5-dihydro-1H[1,2,4]triazol-3-yl]-propyl}-phenoxy)-2-methyl-propionic acid]
expression of PPARα, CPT1, and LPL (RT-qPCR): promoted | expression of PPARα-regulated genes such as ACOX1 and Cyp4A3 (RT-qPCR): induced | liver CPT-Ia expression (chronic (>3 d) treatment (FIG. 17)): upregulated | LPL expression (liver, chronic treatment (FIG. 11)): enhanced expression of LPL | ACOX1 expression (liver, chronic treatment (FIG. 12)): enhanced by PPARα activation, most consistently | Cyp4A3 expression (liver, chronic treatment (FIG. 13)): consistently | apoCIII expression (liver, chronic treatment up to 7 days (FIG. 11)): significantly suppressed expression of apoCIII at each time point | ACADM expression (time course (FIG. 18)): upregulates | CYP4A3 mRNA in the liver (wild-type and PPARα knockout mice): enhanced levels of CYP4A3 mRNA in the liver of wild-type but not PPARα knockout mice
